Laboratory results reported in patent US12692267B2 (Madera Therapeutics, LLC, priority 2019, dated 2026).
Like-named read-outs stand apart in the source and are kept apart here.

Legend:
[1] = test system: HCT116 (human colon cancer); test: Cancer cell viability, CCK-8, HCT116; assay type: cell-based; conditions: for EC50: read-out: EC50 (uM, HCT116); for IC50: read-out: IC50 (uM, HCT116)
Protocol: (§1) Cancer cell lines. […] The plate is incubated for 48 hours.
(§2) CCK-8 solution is added directly to the cells.

[2] = target: recombinant human caseinolytic peptidase hClpP (Homo sapiens, UniProt Q16740); test: hClpP peptide hydrolysis assay (Ac-WLA-AMC); conditions: for Dose-dependency of hClpP activation: Protocol 2, purified hClpP, Ac-WLA-AMC; for Time course of hClpP activity: 1 uM, Protocol 2
Chain of recombinant human caseinolytic peptidase hClpP (Q16740 57-277): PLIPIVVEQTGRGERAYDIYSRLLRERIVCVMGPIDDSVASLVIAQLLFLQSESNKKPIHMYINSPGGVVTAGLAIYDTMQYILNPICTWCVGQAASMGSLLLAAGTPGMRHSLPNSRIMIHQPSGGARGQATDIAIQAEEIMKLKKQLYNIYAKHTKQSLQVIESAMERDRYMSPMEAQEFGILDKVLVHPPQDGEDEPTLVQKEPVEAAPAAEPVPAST
Protocol: Briefly, the activity of recombinant hClpP proteolytic subunit (1 μg/mL) was measured in the assay buffer composed of 50 mM Tris, 10 mM MgCl2, 100 mM KCl, 1 mM DTT, 4 mM ATP, 0.02% Triton X-100 and 5% Glycerol, pH 8.0 (HCl) using 10 µM of fluorogenic Ac-WLA-AMC substrate as described in references above. […] Using the first protocol (Protocol 1), the reaction was initiated by immediately mixing enzyme and substrate in the presence of indicated doses of compounds. Applying a second protocol (Protocol 2), the enzyme and compounds were mixed and incubated in assay buffer for 60 min before initiating the reaction by adding Ac-WLA-ACM substrate.
Enzymatic activity of hClpP was measured in assay buffer (as described in Experimental Procedure/Materials and Methods) and the level of fluorescence of liberated coumarin monitored continuously.

[3] = test system: MDA-MB-231 (MDA 231, human breast adenocarcinoma); test: Cancer cell viability, CCK-8, MDA-MB-231; assay type: cell-based; conditions: for IC50: read-out: IC50 (uM, MDA 231); for EC50: read-out: EC50 (uM, MDA 231)
Protocol: as §1, §2

[4] = test system: ClpX and TUFM; test: ClpX and TUFM Western blots in SUM159 cells (FIG. 5); conditions: concentration response and time course
[5] = Homo sapiens, HCT-116, 48 h, HCT116, 48 hours, CCK-8
[6] = Homo sapiens, MDA-MB-231, MDA 231, 48 hours, CCK-8

`CC#Cc1cccc(CN2CCc3ncn(Cc4ccc(Br)cc4)c(=O)c3C2)c1` [Example 78] gave an EC50 [1, 5] of 5.2 µM.
Work on `N#Cc1cccc(CN2CCc3ncn(Cc4ccc(C(F)(F)F)cc4)c(=O)c3C2)c1` [Example 75, 3-[(4-oxo-3-{[4-(trifluoromethyl)phenyl]methyl}-3H,4H,5H,6H,7H,8H-pyrido[4,3-d]pyrimidin-6-yl)methyl]benzonitrile] yielded an EC50 [1, 5] of 0.098 µM.
`CC#Cc1cccc(CN2CCc3ncn(Cc4ccc(C(F)(F)F)cc4)c(=O)c3C2)c1` [Example 79] gave an EC50 [1, 5] of 5.7 µM.
With `N#Cc1cccc(CC2CCC3=C(C2)C(=O)N(Cc2ccc(C(F)(F)F)cc2)C2=NCCN23)c1` (stereo not shown) [Ex. 67, 3-[(5-oxo-4-{[4-(trifluoromethyl)phenyl]methyl}-1H,2H,4H,5H,6H,7H,8H,9H-imidazo[1,2-a]quinazolin-7-yl)methyl]benzonitrile] the EC50 [1, 5] was 1.2 µM and the “Dose-dependency of hClpP activation” value [2] was “Dose-dependent increases in hClpP activity”.
In the case of `O=C1C2=C(CCN(Cc3cccc(Cl)c3)C2)N2CCN=C2N1Cc1ccc(C(F)(F)F)cc1` [Example 27], the IC50 [3, 6] is reported as 0.016 µM and the IC50 [1, 5] is reported as 0.016 µM.
`N#Cc1ccc(CN2CCC3=C(C2)C(=O)N(Cc2ccc(Cl)cc2)C2=NCCN23)cc1` [Example 22] gave an IC50 [3, 6] of 3.4 µM and an IC50 [1, 5] of 1.8 µM.
For `O=C1C2=C(CN(Cc3ccccc3)C2)N2CCN=C2N1Cc1ccc(Cl)cc1` [Example 80, 4-benzyl-8-[(4-chlorophenyl)methyl]1,4,8,10-tetraazatricyclo[7.3.0.0^2,6]dodeca-2 (6),9-diene-7-one], the EC50 [1, 5] was 0.011 µM and the “Time course of hClpP activity” value [2] was “time-dependent increase in hClpP activity”.
`N#Cc1cccc(CN2CCc3c(c(=O)n(Cc4ccc(C(F)(F)F)cc4)c(=O)n3CCCCN)C2)c1` [Example 58, 3-((1-(4-aminobutyl)-2,4-dioxo-3-(4-(trifluoromethyl)benzyl)-1,2,3,4,7,8-hexahydropyrido[4,3-d]pyrimidin-6 (5H)-yl)methyl)benzonitrile] was tested, and the EC50 [1, 5] was 0.23 µM.
`N#Cc1cccc(CC2CCC3=C(C2)C(=O)N(Cc2ccc(Cl)cc2)C2=NCCN23)c1` (stereo not shown) [Ex. 68, 3-({4-[(4-chlorophenyl)methyl]-5-oxo-1H,2H,4H,5H,6H,7H,8H,9H-imidazo[1,2-a]quinazolin-7-yl}methyl)benzonitrile] was tested, and the EC50 [1, 5] was 1.5 µM and the “Dose-dependency of hClpP activation” value [2] was “Dose-dependent increases in hClpP activity”.
For `N#Cc1cccc(CN2CC3=C(C2)N2CCN=C2N(Cc2ccc(Br)cc2)C3=O)c1` [Example 76, 3-({8-[(4-bromophenyl)methyl]-7-oxo-1,4,8,10-tetraazatricyclo[7.3.0.0^2,6}dodeca-2(6),9-dien-4-yl}methyl)benzonitrile], the EC50 [1, 5] was 0.003 µM.
For `N#Cc1cccc(CN2CCC3=C(C2)C(=O)N(Cc2ccc(C(F)(F)F)cc2)C2=NCCCN23)c1` [Ex. 62, 3-[(8-oxo-9-{[4-(trifluoromethyl)phenyl]methyl}-1,5,9,11-tetraazatricyclo[8.4.0.0^2,7]tetradeca-2(7),10-dien-5-yl)methyl]benzonitrile], the EC50 [3, 6] was 0.021 µM, the EC50 [1, 5] was 0.022 µM and the “Dose-dependency of hClpP activation” value [2] was “Dose-dependent increases in hClpP activity”.
Compound `Cc1nc2c(c(=O)n1Cc1ccc(Br)cc1)CN(Cc1cccc(C#N)c1)CC2` [Example 72, 3-({3-[(4-bromophenyl)methyl]-2-methyl-4-oxo-3H,4H,5H,6H,7H,8H-pyrido[4,3-d]pyrimidin-6-yl}methyl)benzonitrile] has an EC50 [1, 5] of 0.077 µM.
For `N#Cc1cccc(CN2CCc3ncn(Cc4ccc(Br)cc4)c(=O)c3C2)c1` [Example 74, 3-({3-[(4-bromophenyl)methyl]-4-oxo-3H,4H,5H,6H,7H,8H-pyrido[4,3-d]pyrimidin-6-yl}methyl)benzonitrile], the EC50 [1, 5] was 0.02 µM.
`O=C1C2=C(CN(Cc3ccccc3)C2)N2CCN=C2N1Cc1ccc(C(F)(F)F)cc1` [Example 82, 4-benzyl-8-{[4-(trifluoromethyl)phenyl]methyl}1,4,8,10-tetraazatricyclo[7.3.0.0^2,6]dodeca-2 (6), 9-diene-7-one] was tested, and the EC50 [1, 5] was 0.01 µM and the “Time course of hClpP activity” value [2] was “time-dependent increase in hClpP activity”.
With `N#Cc1cccc(CN2CCC3=C(C2)C(=O)N(Cc2ccc(Br)cc2)C2=NCCCN23)c1` [Example 84, 3-({9-[(4-bromophenyl)methyl]-8-oxo-1,5,9,11-tetraazatricyclo[8.4.0.0 ^2,7]tetradeca-2(7), 10-dien-5yl}methyl)benzonitrile] the EC50 [1, 5] was 0.013 µM and the “Time course of hClpP activity” value [2] was “time-dependent increase in hClpP activity”.
With `O=C1C2=C(CCN(Cc3cccc(OC(F)(F)F)c3)C2)N2CCN=C2N1Cc1ccc(C(F)(F)F)cc1` [Example 3] the IC50 ([3]; MDA 231, 48 hours, CCK-8) was 0.27 µM and the IC50 ([1]; HCT116, 48 hours, CCK-8) was 0.36 µM.
For `N#Cc1cccc(CN2CCC3=C(C2)C(=O)N(Cc2ccc(Cl)cc2)C2=NCC(F)(F)CN23)c1` [Example 71, 3-({9-[(4-chlorophenyl)methyl]-13,13-difluoro-8-oxo-1,5,9,11-tetraazatricyclo[8.4.0.0^2,7]tetradeca-2 (7), 10-dien-5-yl}methyl)benzonitrile], the EC50 [1, 5] was 0.244 µM.
`O=C1CCc2ccc(CN3CCC4=C(C3)C(=O)N(Cc3ccc(Cl)cc3)C3=NCCN34)cc21` [Example 64, 7-[(4-chlorophenyl)methyl]-11-[(3-oxo-2,3-dihydro-1H-inden-5-yl)methyl]-2,5,7,11-tetraazatricyclo[7.4.0.0^2,6]trideca-1(9),5-dien-8-one] was tested, and the EC50 [1, 5] was 10.5 µM.
In the case of `CC1(C)CN=C2N(Cc3ccc(Cl)cc3)C(=O)C3=C(CCN(Cc4cccc(C#N)c4)C3)N2C1` [Example 70, 3-({9-[(4-chlorophenyl)methyl]-13,13-dimethyl-8-oxo-1,5,9,11-tetraazatricyclo[8.4.0.0^2,7]tetradeca-2 (7), 10-dien-5-yl}methyl)benzonitrile], the EC50 [1, 5] is reported as 1.4 µM.
For `O=C(NCc1ccc2c(c1)OCO2)c1nnc(Cc2ccc(F)cc2Cl)o1` [Ex. 1, reference compound], the “Dose-dependency of hClpP activation” value [2] was “dose-dependent increases in hClpP activity”.
In the case of `N#Cc1cccc(CN2CC3=C(C2)N2CCN=C2N(Cc2ccc(Cl)cc2)C3=O)c1` [Ex. 66], the EC50 [1, 5] is reported as 0.0055 µM and the “Dose-dependency of hClpP activation” value [2] is reported as “Dose-dependent increases in hClpP activity”.
`Cc1nc2c(c(=O)n1Cc1ccc(C(F)(F)F)cc1)CN(Cc1cccc(C#N)c1)CC2` [Example 73, 3-[(2-methyl-4-oxo-3-{[4-(trifluoromethyl)phenyl]methyl}-3H,4H,5H,6H,7H,8H-pyrido[4,3-d]pyrimidin-6-yl)methyl]benzonitrile] was tested, and the EC50 [1, 5] was 0.069 µM.
With `N#Cc1cccc(Cc2nnc(C(=O)NCc3ccc(Cl)cc3)o2)c1` [Example 63, N-[(4-chlorophenyl)methyl]-5-[(3-cyanophenyl)methyl]-1,3,4-oxadiazole-2-carboxamide] the EC50 [3, 6] was 5 µM and the EC50 [1, 5] was 4 µM.
`O=C1C2=C(CN(Cc3ccccc3)C2)N2CCN=C2N1Cc1ccc(Br)cc1` [Example 81, 4-benzyl-8-[(4-bromophenyl)methyl]1,4,8,10-tetraazatricyclo[7.3.0.0^2,6]dodeca-2 (6),9-diene-7-one] was tested, and the EC50 [1, 5] was 0.039 µM and the “Time course of hClpP activity” value [2] was “time-dependent increase in hClpP activity”.
For `Cc1nc2c(c(=O)n1Cc1ccc(Cl)cc1)CN(Cc1cccc(C#N)c1)C2` [Example 69, 3-({3-[(4-chlorophenyl)methyl]-2-methyl-4-oxo-3H,4H,5H,6H,7H-pyrrolo[3,4-d]pyrimidin-6-yl}methyl)benzonitrile], the EC50 [1, 5] was 0.097 µM.
With `Cn1c2c(c(=O)n(Cc3cccc(C(F)(F)F)c3)c1=O)CN(Cc1ccccc1)CC2` [Example 39] the EC50 [3, 6] was 1.1 µM and the EC50 [1, 5] was 1.4 µM.
In the case of `Cn1c2c(c(=O)n(Cc3ccc(C(F)(F)F)cc3)c1=O)CN(Cc1cccc(Cl)c1)CC2` [Example 56], the EC50 ([3]; MDA 231, 48 hours, CCK-8) is reported as 0.29 µM and the EC50 ([1]; HCT116, 48 hours, CCK-8) is reported as 0.098 µM.
With `N#Cc1cccc(CN2CCC3=C(C2)C(=O)N(Cc2ccc(Cl)cc2)C2=NCCCN23)c1` [Example 83, 3-({9-[(4-chlorophenyl)methyl]-8-oxo-1,5,9,11-tetraazatricyclo[8.4.0.0 ^2,7]tetradeca-2(7), 10-dien-5yl}methyl)benzonitrile] the EC50 [1, 5] was 0.28 µM and the “Time course of hClpP activity” value [2] was “time-dependent increase in hClpP activity”.
Compound `Cc1ccccc1CN1C(=O)C2=C(CCN(Cc3ccccc3)C2)N2CCN=C12` [ONC201, reference compound] has an EC50 ([3]; Homo sapiens, MDA-MB-231, 48 h) of 3 µM, an IC50 ([3]; Homo sapiens, MDA-MB-231, 48 h) of 3 µM and an EC50 ([1]; Homo sapiens, HCT-116, 48 h) of 2.8 µM. The IC50 ([1]; Homo sapiens, HCT-116, 48 h) was 2.8 µM and the “ClpX and TUFM protein level” value [4] was “reduction of the protein ClpX and TUFM”.
`N#Cc1cccc(CN2CC3=C(C2)N2CCN=C2N(Cc2ccc(C(F)(F)F)cc2)C3=O)c1` [Example 77, 3-[(7-oxo-8-{[4-(trifluoromethyl)phenyl]methyl}-1,4,8,10-tetraazatricyclo[7.3.0.0^2,6]dodeca-2 (6),9-dien-4-yl)methyl]benzonitrile] gave an EC50 [1, 5] of 0.0021 µM.
Work on `Cc1nc2c(c(=O)n1Cc1ccc(Cl)cc1)CN(Cc1cccc(C#N)c1)CC2` [Example 61, 3-({3-[(4-chlorophenyl)methyl]-2-methyl-4-oxo-3H,4H,5H,6H,7H,8H-pyrimidin-6-yl}methyl)benzonitrile] yielded an EC50 [3, 6] of 0.096 µM and an EC50 [1, 5] of 0.097 µM.
